Data taken from US20260062422A1 (Halda Therapeutics OpCo, Inc., priority 2022, published 2026).

Experiments:
[1] = Cellular growth inhibition, T-Rex 293 SC cells with doxycycline (progesterone receptor isoform B induced), Example 45; type: cell-based; settings: progesterone receptor isoform B induced with 10 ng/mL doxycycline, 72 hours, CellTiter-Glo 2.0, Table 11
[2] = test system: T-Rex 293 cell line SC cells lacking increased expression of progesterone receptor isoform B protein; test: Cellular growth inhibition, T-Rex 293 SC cells without doxycycline, Example 45; type: cell-based; settings: T-Rex 293 SC cells not exposed to doxycycline, 72 hours treatment, CellTiter-Glo 2.0
[3] = test system: T47D cells; test: Cellular growth inhibition assay for T47D cells, CellTiter-Glo; type: cell-based, human; settings: 72 hours treatment, CellTiter-Glo 2.0 cell viability
How it was run: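 Cells are plated at 3000/well and allowed 24 h before treatment. Test compound in medium containing 0.5% DMSO is then added, with DMSO-only wells as negative control, and plates are incubated 72 h at 37 °C. ATP luminescence (CellTiter-Glo 2.0) is then fitted to four parameters to derive GI50.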

Measured: GI50

Cc1sc2c(c1C)C(c1ccc(N3CC(N4CCN(c5ncc(C(=O)N[C@H]6C(C)(C)[C@H](Oc7ccc(C#N)c(Cl)c7)C6(C)C)cn5)CC4)C3)cc1)=NC(Cc1ncco1)c1nnc(C)n1-2 (stereo partly drawn) [Compound I-208]
< 500 nM: [1] | [2] | [3]; Homo sapiens, T47D, 72 h

Cc1sc2c(c1C)C(c1ccc(CC3CC4(CCN(c5ccc(C(=O)N[C@H]6C(C)(C)[C@H](Oc7ccc(C#N)c(Cl)c7)C6(C)C)cn5)CC4)C3)cc1)=N[C@@H](Cc1ncco1)c1nnc(C)n1-2 [Compound I-143]
< 500 nM: [1] | [2] | [3]
